Measured values published in patent publication US12479794B2, “Acetophenone oxime compound and application thereof” (Medshine Discovery Inc., priority 2020, dated 2025).

Assays:
[1] = system: ischemia-reperfusion cerebral infarction model; assay: Ischemia-reperfusion cerebral infarction (MCAO) model in male SD rats; format: in vivo; conditions: 90-min MCAO ischemia-reperfusion, 1 mg/kg tail vein after reperfusion, model group 32.4%, P<0.05 vs. model group
From the text: Assay Example 3: Pharmacodynamic Evaluation of the Compound in Ischemia-Reperfusion Cerebral Infarction Model in Male SD Rats Object of the assay: pharmacodynamic assay to explore the improvement of compound 32 on the ischemia-reperfusion cerebral infarction model in rats Materials of the assay: male SD rats (250 g-280 g, SPF grade, Zhejiang Vital River Laboratory Animal Technology Co., Ltd.) • 1) Anesthesia: Respiratory anesthesia with 2.5% isoflurane was used to maintain the depth of anesthesia for animals. • 2) Middle Cerebral Artery Occlusion (MCAO) Model: Animals weighed in the range of 250-280 g at the time of modeling surgery. […] For the administration of the assay sample group, compound 32 was injected through the tail vein of rats after reperfusion with a dose of 1 mg/kg and a volume of 5 mL/kg. • 3) Success criteria for the model: • 1: Within 60 minutes after surgery, the animals were scored according to the Bederson method, and the animals with a score of 2-3 were included in the group. • 2: Within 30-60 minutes of modeling, if the cerebral blood flow on the model side (left side) was reduced by more than 30% compared with that on the right side, the model was considered successful, and the animal was included in the group. […]

[2] = Pharmacokinetic evaluation in SD rats (iv and oral); format: in vivo, Sprague Dawley rats; conditions: male, Sprague-Dawley, rat, plasma, iv 1.0, po 2.0 mg/kg
Method: Assay Example 2: Pharmacokinetic Evaluation of Compounds in Rats
Object of the assay: To evaluate the in vivo pharmacokinetics of the compounds in SD rats
Sprague Dawley rats (male, 200-300 g, 7-9 weeks old, Shanghai SLAC)
The pharmacokinetic characteristics of the compounds in rodents after intravenous injection and oral administration were assayed according to the standard protocol. In the assay, the candidate compounds were formulated into clear solutions and administered to rats by single intravenous injection and oral administration. The vehicle for intravenous injection and oral administration was DMSO and 10% hydroxypropyl β-cyclodextrin in water (DMSO:10% hydroxypropyl β-cyclodextrin in water=5:95). Whole blood samples were collected within 48 hours, and centrifuged at 3000 g for 15 minutes. The supernatant was separated to give plasma samples. 4 times the volume of acetonitrile solution containing internal standard was added to precipitate protein. The resulting mixture was centrifuged and the supernatant was taken out. An equal volume of water was added and the mixture was centrifuged. The supernatant was taken out, and injected as a sample to quantitatively analyze the plasma drug concentration by LC-MS/MS analysis method. The pharmacokinetic parameters, such as peak concentration, time to peak, clearance rate, half-life, area under drug-time curve, bioavailability, etc., were calculated.

S1P1 = target: T1, S1P1 (Homo sapiens, UniProt P21453); assay: In vitro agonistic activity on S1P1, U2OS-EDG1 cells, LiveBLAzer FRET B/G; format: cell-based
T1 construct: host or cells: U2OS
Method: Assay Example 1: In Vitro Evaluation of the Agonistic Activity of the Compounds of the Present Disclosure on S1P1
Object of the assay: To detect the agonistic activity of compounds on S1P1
• 1. Cells U2OS-EDG1 (Batch No.: Invitrogen-K1520) were taken out of a liquid nitrogen tank and placed in a 37° C. water bath to thaw quickly; • 2. The cell suspension was aspirated into a 15 ml centrifuge tube, resuspended in 5 ml of preheated medium, and centrifuged at 1000 rpm for 5 min; • 3. The supernatant was discarded. The cells were resuspended in 10 ml of medium, transferred into a T75 culture flask, and cultivated in an incubator with 5% CO2 at 37° C. II. Agonist Assay • 1. The compounds were diluted to working concentrations, and serially diluted 3-fold by Echo 555 (manufacturer: Labcyte) to obtain 10 concentrations; 200 nL of each concentration of the compound was transferred to a cell plate and centrifuged at 1000 rpm for 15 seconds; • 2. Culture medium was aspirated from the culture flask; 4 mL of Dulbecco's phosphate buffer (DPBS, supplier: Coring, item No.: 21-031-CVR, batch No.: 03318006) was added, and the residual serum was washed away; 2 mL of trypsin was added; The mixture was incubated in an incubator at 37° C. for 2 min, and the cells were digested; 10 mL of seeding medium was added to resuspend the cells; 0.6 mL of cell suspension was taken out and counted; • 3. The density of cells was adjusted to 1.88E+05 cells/mL using seeding medium, with 40 μL per well (7500\well); 40 μL of FreeStyle™ Expression medium was added around the cell plate; The plate was let stand at room temperature for 15 min and incubated at 37° C. with 5% CO2 for 20 hours. III. Signal Detection • 1. LiveBLAzer™-FRET B/G Substrate (CCF4-AM) assay reagents were formulated according to the instructions; • 2. 8 μL of 6×Substrate Mixture was added to each well of the cell plate; The plate was centrifuged at 1000 rpm for 15 seconds, covered with a film, and incubated at 23° C. for 2 hours; The cell plate was subjected to Envision […] detection. IV. Data Analysis • 1. The raw data were converted into % Effect by using an equation, and the EC50 value can be obtained by curve fitting with four parameters [“log(agonist) vs. response—Variable slope” model in GraphPad Prism]; • 2. Calculation formula: Ratio=(460 nm−blank)/(535 nm−blank) % Effect=(SampleRatio−Ave LCRatio)/(Ave HCRatio−Ave LCRatio)×100%

T1 sequence (P21453 whole entry): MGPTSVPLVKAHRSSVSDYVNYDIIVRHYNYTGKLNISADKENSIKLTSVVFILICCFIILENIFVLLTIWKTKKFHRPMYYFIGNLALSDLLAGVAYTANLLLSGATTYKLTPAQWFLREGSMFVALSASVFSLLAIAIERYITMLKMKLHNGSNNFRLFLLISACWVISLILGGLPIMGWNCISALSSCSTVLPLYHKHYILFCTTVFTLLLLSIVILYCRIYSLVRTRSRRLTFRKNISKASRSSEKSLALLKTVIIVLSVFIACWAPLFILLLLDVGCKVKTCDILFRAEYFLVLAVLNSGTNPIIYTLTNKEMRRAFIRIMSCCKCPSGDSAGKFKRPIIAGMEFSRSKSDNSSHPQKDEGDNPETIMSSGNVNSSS

## C/C(=N\OCc1ccc(OC(C)C)c(C(F)(F)F)c1)c1ccc2c(c1)CCC2N1CC(C(=O)O)C1 (stereo not drawn) [Compound 32]
[1]
  Percentage of left cerebral infarct area: 21.0%
[2]; intravenous, read-out: Clearance rate CL
  clearance: 11.3 mL/min/kg
[2]; intravenous, read-out: Distribution in tissue Vdss
  Vd: 4.35 L/kg
[2]; read-out: Bioavailability F
  bioavailability: 92.7%
[2]; read-out: Peak concentration Cmax
  Cmax: 556 nM
[2]; po, 2 mg/kg, PO, read-out: Area under drug-time curve AUC0-last PO
  AUC(0-t): 5.47 µM·h
[2]; po, 2 mg/kg, PO, read-out: Half life T1/2 (PO) (converted)
  half-life: 5.44 h
S1P1
  EC50: 2.3 nM
S1P1; % Effect
  Emax: 98.6%
